From US9227956B2 (Pfizer Inc., priority 2013, dated 2016)

Tests used:
human PCSK9 [1] = assay: PCSK9 AlphaLISA assay, PCSK9 lowering in WT7 cells; details: WT7 cells (Huh7 stably over-expressing human PCSK9); secreted PCSK9 by AlphaLISA; overnight incubation (16-24 h); top concentration 20 μM; read-out: Cell Based PCSK9 IC50
Text: An in-vitro AlphaLISA assay (Perkin Elmer) was developed in order to quantitate the level of PCSK9 secreted into the cell culture media following compound treatment. To detect and measure PCSK9 protein an in-house generated anti-PCSK9 antibody was coupled to AlphaLISA acceptor beads by an external vendor (PerkinElmer) and a second internally developed anti-PCSK9 antibody with an epiptope distinct from that of the acceptor beads was biotinylated in house. Streptavidin coated-donor beads (Perkin Elmer) are also included in the assay mixture which then binds the biotinylated anti-PCSK9 antibody and in the presence of PCSK9 this donor complex and acceptor beads are brought into close proximity. […] The ability of compound to modulate PCSK9 protein levels in conditioned media by AlphaLISA was assessed in the human hepatocellular carcinoma cell line Huh7, stably over-expressing human PCSK9. […] Following plasmid transfection the stable WT7 clone was identified and maintained under Zeocin selection. Compound screening was performed in 384-well plates where WT7 cells were plated at a density of 7500 cells per well in 20 μL of tissue culture media containing compound in an eleven point, 0.5 log dilution format at a high treatment concentration of 20 μM in a final volume of 0.5% DMSO. In additional to these test compound conditions each screening plate also included wells that contained 20 μM puromycin as a positive assay control defined as high percent effect, HPE, as well as wells containing media in 0.5% DMSO as a negative treatment control defined as zero percent effect, ZPE. After overnight compound incubation (16-24 h) the tissue culture media was collected and an aliquot from each sample was transferred to individual wells of a 384-well white Optiplate (Perkin Elmer). The coupled antibodies and donor beads were added to the assay plates in a buffer composed of 30 mM Tris pH 7.4, 0.02% Tween-20 and 0.02% Casein. Anti-PCSK9 acceptor beads (final concentration of 10 μg/mL) and anti-PCSK9 biotinylated antibody (final concentration of 3 nM) were added and incubated for 30 minutes at room temperature followed by the addition of the streptavidin donor beads (final concentration 40 μg/mL) for an additional 60 minutes. Additionally a standard curve was generated where AlphaLISA reagents were incubated in wells spiked with recombinant human PCSK9 diluted in tissue culture media from 5000 ng/mL to 0.6 ng/mL. […] The test compound data were converted into percent effect, using the ZPE and HPE controls as 0% and 100% activity, respectively. The equation used for converting each well reading into percent effect was:
[formula] IC50 was then calculated and reported as the midpoint in the percent effect curve in molar units and the values are reported under the Cell Based PCSK9 IC50 (μM) column header within Table 1 Biological Data. Additionally, to monitor the selectivity of compound response for PCSK9 the level of a second secreted protein, Transferrin, was measured from the same conditioned media treated with test compound by AlphaLISA. […] To detect and quantify effects on Transferrin 0.01 mL of the culture media was transferred to a 384-well white Optiplate and 0.01 mL of media was added to bring the volume to 0.02 ml. Anti-Transferrin acceptor beads were added to a final concentration of 10 μg/mL, biotinylated anti-Transferrin at 3 nM and streptavidin donor beads at 40 μg/mL. Percent effect and IC50 for Transferrin was computed in a similar manner as that described for PCSK9.

human PCSK9 [2] = assay: Cell Free PCSK9 Assay (PCSK9-luciferase RNA translated in HeLa cell lysate); type: biochemical; details: 30° C. for 45 minutes, luciferase readout, top concentration 100 μM
Protocol: In order to eliminate the permeability barrier inherent to the WT7 and SCHH cell-based assays a cell-free system was also established to access compound activity. […] The construct was then in-vitro transcribed using the MEGAscript T7 Kit (Life Technologies) and RNA subsequently purified incorporating the MEGAclear Kit (Life Technologies) according to manufacturer's protocols. […] Growth was in a 50 L wavebag at a rocker speed of 25 rpm and angle 6.1 with 5% CO2 and 0.2 LPM flow rate with cells harvested at a density of 2-2.5e6/ml. Lysates additionally contained 1 tablet of Roche cOmplete-EDTA protease inhibitors per 50 ml with tris(2-carboxyethyl)phosphine (Biovectra) substituted for dithiothreitol, and were clarified by an additional final centrifugation at 10,000 rpm in a Sorvall SS34 rotor at 4° C. for 10 minutes. Compound screening was performed in 384-well plates in an eleven point, 0.5 log dilution format at a top test compound concentration of 100 μM in a final volume of 0.5% DMSO. […] Upon assay completion 1 μL from each reaction solution was removed and transferred to a second 384-well Optiplate (Perkin Elmer) containing 24 μL of SteadyGlo (Promega) and signal intensity was measured on the Envision (Perkin Elmer) using the enhanced luminescence protocol. […] The test compound data were converted into percent effect, using the ZPE and HPE controls as 0% and 100% activity, respectively, applying Equation 1 above. IC50 was then calculated and reported as the midpoint in the percent effect curve in molar units and the values are reported under the Cell Free PCSK9 IC50 (μM) column header within Table 1 Biological Data.

PCSK9 [3] = assay: PCSK9 lowering in sandwich culture human hepatocytes (SCHH); type: cell-based; details: maximum response versus vehicle
Protocol: Test compound in-vitro pharmacokinetic and pharmacodynamic relationships were measured in sandwich culture primary cryopreserved human hepatocytes. Within these studies SCHH cells (BD Biosciences IVT) were thawed at 37° C. then placed on ice, after which the cells were added to pre-warmed (37° C.) In VitroGRO-HT media and centrifuged at 50×g for 3 min. The cell pellet was re-suspended to 0.8×10^6 cells/mL in InVitroGRO-CP plating medium and cell viability determined by trypan blue exclusion. On day 1, hepatocyte suspensions were plated in BioCoat 96-well plates at a density of 80000 cells/well in a volume of 0.1 mL/well. After 18 to 24 hours of incubation at 37° C. in 5% CO2, cells were overlaid with ice-cold 0.25 mg/mL BD Matrigel Matrix Phenol Red-Free in incubation medium at 0.1 mL/well. Cultures were maintained at 37° C. in 5% CO2 in InVitroGRO-HI (FBS-free media), which was replaced every 24 hours and time course treatments were initiated on day 5. Prior to compound treatment cell plates were washed 3 times with 0.1 mL/well InVitroGRO-HI and 0.09 mL of media was added back in preparation for the compound additions. 1 uL of either DMSO or compound DMSO stocks at 30 mM, 10 mM, 3 mM and 1 mM were stamped into 96 well V bottom polypropylene plates. 0.099 mL of media was added to the compound plate and mixed thoroughly before the addition of 0.010 mL from the interim compound plate to the cell plate. […] At the indicated time, 0.08 mL of media was removed from the cell plates and frozen for subsequent analysis of secreted PCSK9 by AlphaLISA and for determination of drug levels in the media by liquid chromatography-tandem mass spectrometry (LC-MS/MS). The remaining media was then aspirated and the cell layers were washed 3× with ice cold Hanks Balanced Salt Solution (HBSS) under shaking conditions to remove the matrigel overlay and plates were then stored at −20° C. for subsequent determination of drug levels in the cells by LC-MS/MS. AlphaLISA determination of PCSK9 protein levels within the conditioned media was performed ultilizing the identical reagents and detection protocols described above for the WT7 cells.

PCSK9 [4] = assay: as above; type: cell-based; details: maximum response versus vehicle; at 8 h at 100 μM

| SMILES | IC50 (human PCSK9 [1]) [µM] | IC50 (human PCSK9 [2]) [µM] | Sandwich Culture Hepatocyte (SCHH) PCSK9 Lowering (PCSK9 [3]; at 6 h at 30 uM) [% at 6 h at 30 uM] | Sandwich Culture Hepatocyte (SCHH) PCSK9 Lowering (PCSK9 [3]; at 8 h at 30 μM) [% at 8 h at 30 μM] | Sandwich Culture Hepatocyte (SCHH) PCSK9 Lowering (PCSK9 [4]) |
| --- | --- | --- | --- | --- | --- |
| Cc1cccnc1N(C(=O)c1ccc(-c2cnn(C)c2-c2nnn(C(C)OC(=O)C(C)C)n2)cc1)[C@@H]1CCCNC1 (single isomer, unassigned) [Example 51] | > 20 | 3.56 | 48 | – | – |
| CCC(OC(=O)C(C)C)n1nnc(-c2c(-c3ccc(C(=O)N(c4ncccc4C)[C@@H]4CCCNC4)cc3)cnn2C)n1 (single isomer, unassigned) [Example 52] | > 20 | 10.7 | 25 | – | – |
| CCC(OC(=O)C(C)C)n1nnc(-c2c(-c3ccc(C(=O)N(c4ncccc4C)[C@@H]4CCCNC4)cc3)cnn2C)n1 (single isomer, unassigned) [Example 53] | > 20 | 31.8 | 0 | – | – |
| Cc1cccnc1N(C(=O)c1ccc(-c2cnn(C)c2-c2nnn(C(OC(=O)C(C)C)C(C)C)n2)cc1)[C@@H]1CCCNC1 (single isomer, unassigned) [Example 54] | > 20 | 12.8 | 29 | – | – |
| Cc1cccnc1N(C(=O)c1ccc(-c2cnn(C)c2-c2nnn(C(OC(=O)C(C)C)C(C)C)n2)cc1)[C@@H]1CCCNC1 (single isomer, unassigned) [Example 55] | > 19.2 | 19.8 | 40 | – | – |
| Cc1cccnc1N(C(=O)c1ccc(-c2cnn3cccnc23)cc1)[C@@H]1CCCNC1 [Example 1, N-(3-methylpyridin-2-yl)-N-[(3R)-piperidin-3-yl]-4-(pyrazolo[1,5-a]pyrimidin-3-yl)benzamide] | 3.2 | 0.44 | – | 74 | – |
| Cn1ncc(-c2ccc(C(=O)N(c3ncccc3Cl)[C@@H]3CCCNC3)cc2)c1C(=O)O [Example 7, 4-(4-{(3-chloropyridin-2-yl)[(3R)-piperidin-3-yl]carbamoyl}phenyl)-1-methyl-1H-pyrazole-5-carboxylic acid] | > 20 | 18 | – | – | 26% at 8 h at 100 μM |
| CCOC(=O)OC(C)OC(=O)c1c(-c2ccc(C(=O)N(c3ncccc3Cl)[C@@H]3CCCNC3)cc2)cnn1C (stereo partly drawn) [Example 8, 1-[(ethoxycarbonyl)oxy]ethyl 4-(4-{(3-chloropyridin-2-yl)[(3R)-piperidin-3-yl]carbamoyl}phenyl)-1-methyl-1H-pyrazole-5-carboxylate] | 9.5 | 3.7 | – | 70 | – |
| COC(=O)c1c(-c2ccc(C(=O)N(c3ncccc3Cl)[C@@H]3CCCNC3)cc2)cnn1C [Example 10, Methyl 4-(4-{(3-chloropyridin-2-yl)[(3R)-piperidin-3-yl]carbamoyl}phenyl)-1-methyl-1H-pyrazole-5-carboxylate] | 1.5 | 0.64 | – | 87 | – |
| Cn1ncc(-c2ccc(C(=O)N(c3nccc4ccn(C)c34)[C@@H]3CCCNC3)cc2)c1C(=O)O [Example 12, 1-methyl-4-(4-{(1-methyl-1H-pyrrolo[2,3-c]pyridin-7-yl)[(3R)-piperidin-3-yl]carbamoyl}phenyl)-1H-pyrazole-5-carboxylic acid] | > 20 | 1.7 | – | 36 | – |
| COC(=O)c1c(-c2ccc(C(=O)N(c3ncccc3C)[C@@H]3CCCNC3)cc2)cnn1C [Example 13, Methyl 1-methyl-4-(4-{(3-methylpyridin-2-yl)[(3R)-piperidin-3-yl]carbamoyl}phenyl)-1H-pyrazole-5-carboxylate] | 2.3 | 0.8 | – | 83 | – |
| CCOC(=O)O[C@@H](C)OC(=O)c1c(-c2ccc(C(=O)N(c3ncccc3Cl)[C@@H]3CCCNC3)cc2)cnn1C [Example 15a, (1S)-1-[(ethoxycarbonyl)oxy]ethyl 4-(4-{(3-chloropyridin-2-yl)[(3R)-piperidin-3-yl]carbamoyl}phenyl)-1-methyl-1H-pyrazole-5-carboxylate] | 7.3 | 3.1 | – | 72 | – |
| Cc1cccnc1N(C(=O)c1ccc(-c2cnn(C)c2-c2nn[nH]n2)cc1)[C@@H]1CCCNC1 [Example 17, N-(3-methylpyridin-2-yl)-4-[1-methyl-5-(2H-tetrazol-5-yl)-1H-pyrazol-4-yl]-N-[(3R)-piperidin-3-yl]benzamide] | > 20 | 3.05 | – | – | 63% at 8 h at 100 uM |
| Cc1cccnc1N(C(=O)c1ccc(-c2cnn(C)c2-c2noc(=O)[nH]2)cc1)[C@@H]1CCCNC1 [Example 18, 4-[1-methyl-5-(5-oxo-4,5-dihydro-1,2,4-oxadiazol-3-yl)-1H-pyrazol-4-yl]-N-(3-methylpyridin-2-yl)-N-[(3R)-piperidin-3-yl]benzamide] | > 20 | 5.61 | – | – | 15% at 8 h at 100 uM |
